“Also recorded” adds a separate entry of the source. Where no end group is shown, it is not given here. [ ]: non-standard residue; d: D form. sY = N[C@@H](Cc1ccc(OS(=O)(=O)O)cc1)C(=O)O
Tests used:
BA8 Fab [1] = assay: DSF stabilizing effect of peptides on BA8; design: species or system rabbit; settings: BA8 Fab before and after binding of peptide (solution after ITC)
Protocol: To assess the effect of sulfated peptide binding on the thermal stability of BA8, we performed differential scanning fluorimetry (DSF) measurements (Fig. 2C) ([25]). The melting temperature (Tm) of BA8 forming a complex with the sulfated peptide was 75.6 °C, whereas the pre-binding Tm was 70.8 °C.
The stabilization effect of the addition of these partially sulfated peptides on BA8 was evaluated using DSF measurements (Fig. S8).
The DSF thermal stability measurements were performed using a CFX Real-Time PCR System (Bio-Rad). First, 1 μl of 100 × SYPRO Orange stain was diluted with 19 μl of 8.3 μM unbound-BA8 Fab or the solution remaining in the cell after ITC measurement. Next, fluorescence was scanned every minute to obtain melting curves of the solutions as they were heated at 1.0 °C/min. The change in the scanned relative fluorescence unit per unit time was recorded, and the temperature at its peak was considered to be the melting temperature (Tm) ([42]).

BA8 Fab [2] = assay: SPR analysis of sulfated, non-sulfated and partially sulfated CCR5 N-terminal peptides with BA8; format: binding, rabbit; settings: for binding of peptide to BA8 in SPR, in words / Kd / koff: BA8 Fab immobilized, SPR; for binding of peptide to BA8 in SPR, in words: peptides 2 to 162 nM as analyte (statements of b30 and b31 cover SPR and ITC); for kon: SPR Biacore 8K, BA8 Fab immobilized on CM5 chip, PBS 0.005% Tween 20, global fitting; for kon / Kd / koff: partially sulfated peptide as analyte
From the text: To quantitatively evaluate the intermolecular interaction between BA8 and the sulfated N-terminal peptide of CCR5, we prepared a Fab fragment of BA8 as a recombinant protein (Fig. S2, A and B) and conducted kinetic interaction analysis using SPR. The Fab was immobilized on a sensor chip using amine coupling, and the synthesized sulfated and non-sulfated N-terminal peptides of CCR5 were used as the analytes.
(§1) We prepared these partially sulfated peptides and analyzed their interactions with BA8 using SPR and ITC (Fig. 4, B and C, Tables 3 and 4). […] These findings indicate that sulfation at 7Tys is essential for BA8 recognition. […] Thus, the high specificity and affinity of BA8 for the sulfated CCR5 N-terminal peptide likely rely heavily on the sulfation at 7Tys and 8Tys. […] In other words, BA8 recognizes not only sulfation of the N-terminal peptide of CCR5, but it is also selective about the sulfation site.
The bindings of the peptides to Fabs were analyzed using a Biacore 8K instrument (Cytiva). Each Fab was immobilized on the surface of a CM5 sensor chip (Cytiva) by the amine-coupling method according to the manufacturer’s instructions in the condition of pH 5.5. The immobilization level reached to about 3000 Response Unit (RU). PBS containing 0.005% Tween 20 was used as the running buffer. The kinetic data were obtained by injection of increasing concentrations of peptides into the sensor chip. The flow rate of the analyte were set to 30 μl/min. The data were analyzed using BIAevaluation software (Cytiva), and the binding affinity as well as kinetic parameters were calculated by a global fitting of the curves.

BA8 Fab [3] = assay: ITC analysis of sulfated, non-sulfated and partially sulfated CCR5 N-terminal peptides with BA8; format: binding, rabbit; settings: PBS; for Kd / ΔH: 10 μM BA8 Fab in cell, 100 μM peptide in syringe, 25 °C
From the text: To determine the thermodynamic parameters accompanying the interaction, we performed an ITC analysis (Fig. 2B, Table 2).
as §1
The ITC experiments were performed using a MicroCal PEAQ-ITC (Malvern Panalytical, Malvern, UK). The BA8 Fab fragment antibody, sufficiently dialyzed in PBS, was adjusted to 10 μM for the cells, and the CCR5 N-terminal peptide, dissolved in the dialysate, was adjusted to 100 μM for the syringe. The first injection of 0.5 μl (omitted from the analysis) was followed by 19 injections of 2 μl with 120 s intervals at a constant temperature of 25 °C. The titration syringe was continuously stirred at 750 rpm.
The baselines were smoothly adjusted for the step after each titration saturated and fitted as one set of sites binding in MicroCal PEAQ-ITC Analysis Software (Malvern Panalytical, Malvern, UK).

[4] = test system: YU2 (CCR5 tropic strain) strain in TZM-bl cells; assay: Pseudoviral assay (single-round viral infective assay) in TZM-bl cells; format: cell-based, HIV; settings: 48 h post-infection, luciferase read-out, BA8 up to 50 μg/ml (approximately 350 nM)
Protocol: Subsequently, we conducted a pseudoviral test using TZM-bl cells.
The anti-HIV activity of BA8, isotype control antibody, and Maraviroc (Sigma-Aldrich) in a single-round viral infective assay against the YU2 (CCR5 tropic strain) strain in TZM-bl cells. At 48 h post-infection, cells were lysed, and relative light units were measured using a Steady-Glo luciferase assay system and GloMax Discover microplate reader (Promega).

[5] = molecular target: endogenous CCR5 expressed on TZM-bl cells (human (endogenous in TZM-bl)) (UniProt P51681); assay: flow cytometry on cells; transfected HEK293 cells (C, C1, C2, C12) or TZM-bl cells fixed with 2% paraformaldehyde; BA8 IgG detected with goat anti-rabbit IgG Alexa 488; median fluorescence against BA8 concentration fitted with a sigmoid function
Sequence of endogenous CCR5 expressed on TZM-bl cells (human (endogenous in TZM-bl)) (P51681 whole entry): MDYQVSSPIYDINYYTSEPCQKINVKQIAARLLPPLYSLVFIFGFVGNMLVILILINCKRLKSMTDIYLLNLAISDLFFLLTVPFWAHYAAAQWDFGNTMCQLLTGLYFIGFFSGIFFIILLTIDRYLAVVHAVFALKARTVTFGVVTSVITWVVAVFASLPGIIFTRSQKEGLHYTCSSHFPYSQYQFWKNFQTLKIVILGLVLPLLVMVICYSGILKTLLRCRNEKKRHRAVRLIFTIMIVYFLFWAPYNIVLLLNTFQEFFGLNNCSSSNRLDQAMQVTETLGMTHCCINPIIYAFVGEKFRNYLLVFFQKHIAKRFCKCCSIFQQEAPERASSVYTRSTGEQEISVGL

[6] = molecular target: full-length CCR5-FLAG co-expressed with TPST2 in HEK293 cells (C2 cells), sulfated by TPST2 (UniProt P51681); assay: as above
Sequence of full-length CCR5-FLAG co-expressed with TPST2 in HEK293 cells (C2 cells), sulfated by TPST2 (P51681 whole entry): as above

[7] = molecular target: full-length CCR5-FLAG co-expressed with TPST1 and TPST2 in HEK293 cells (C12 cells), sulfated by TPST2 (UniProt P51681); assay: as above
Sequence of full-length CCR5-FLAG co-expressed with TPST1 and TPST2 in HEK293 cells (C12 cells), sulfated by TPST2 (P51681 whole entry): as above

TYS3: partially sulfated CCR5 N-terminal peptide containing 3Tys (PI[sY]DINYYTSE; UniProt P51681 8-18, looked up, fragment)
effect of the peptide on the thermal stability (Tm) of BA8, in words (BA8 Fab [1]): did not change the thermal stability of BA8 at all
binding of peptide to BA8 in SPR, in words (BA8 Fab [2]): no binding; also recorded: did not exhibit binding

TYS7: partially sulfated CCR5 N-terminal peptide containing 7Tys (PIYDIN[sY]YTSE; UniProt P51681 8-18, looked up, fragment)
effect of the peptide on the thermal stability (Tm) of BA8, in words (BA8 Fab [1]): contribute to the stabilization of BA8; also recorded: lower than those of TYS3,7,8
Kd (BA8 Fab [3]): 13.4 nM
ΔH (BA8 Fab [3]): -14.9 kcal/mol
ΔG (BA8 Fab [3]; 10 μM BA8 Fab, 100 μM peptide): -10.7 kcal/mol
−TΔS (BA8 Fab [3]; 10 μM BA8 Fab, 100 μM peptide): 4.21 kcal/mol
kon (BA8 Fab [2]): 228000 mol/L/s
Kd (BA8 Fab [2]): 67.8 nM
koff (BA8 Fab [2]): 0.0154 s⁻¹
binding of peptide to BA8 in SPR, in words (BA8 Fab [2]): bound; also recorded: weak binding

Maraviroc [reference compound]
inhibition of HIV infection, in words [4]: inhibited HIV infection; also recorded: concentration-dependent inhibition of viral infection

TYS3,7: partially sulfated CCR5 N-terminal peptide containing 3Tys and 7Tys (PI[sY]DIN[sY]YTSE; UniProt P51681 8-18, looked up, fragment)
effect of the peptide on the thermal stability (Tm) of BA8, in words (BA8 Fab [1]): lower than those of TYS3,7,8
effect of the peptide on the thermal stability (Tm) of BA8, in words (BA8 Fab [1]; listed as TYS37): contribute to the stabilization of BA8
Kd (BA8 Fab [3]): 7.65 nM
ΔH (BA8 Fab [3]): -15.8 kcal/mol
ΔG (BA8 Fab [3]; 10 μM BA8 Fab, 100 μM peptide): -11.1 kcal/mol
−TΔS (BA8 Fab [3]; 10 μM BA8 Fab, 100 μM peptide): 4.68 kcal/mol
kon (BA8 Fab [2]): 265000 mol/L/s
Kd (BA8 Fab [2]): 45 nM
koff (BA8 Fab [2]): 0.0119 s⁻¹
binding of peptide to BA8 in SPR, in words (BA8 Fab [2]): weak binding
binding of peptide to BA8 in SPR, in words (BA8 Fab [2]; listed as TYS37): bound

TYS3,8: partially sulfated CCR5 N-terminal peptide containing 3Tys and 8Tys (PI[sY]DINY[sY]TSE; UniProt P51681 8-18, looked up, fragment)
effect of the peptide on the thermal stability (Tm) of BA8, in words (BA8 Fab [1]): did not change the thermal stability of BA8 at all
binding of peptide to BA8 in SPR, in words (BA8 Fab [2]): did not exhibit binding
binding of peptide to BA8 in SPR, in words (BA8 Fab [2]; listed as TYS38): no binding

sulfated peptide: CCR5 N-terminal peptide Pro8 to Ser18 with sulfated Tyr10, Tyr14, and Tyr15; fully sulfated (PI[sY]DIN[sY][sY]TSE; UniProt P51681 8-18, looked up, fragment)
binding of peptide to BA8 in ITC, in words (BA8 Fab [3]; 10 μM BA8 Fab, 100 μM peptide): so high that it could not be accurately measured
binding of peptide to BA8 in SPR, in words (BA8 Fab [2]): high binding affinity in the nanomolar range

B1: BA8 full-length IgG (recombinant, rabbit IgG Fc) (antibody, V domains shown)
VH: QSLEESGGGLFKPTDTLTLTCTVSGFSLSSYSIRWVRQAPGNGLEWIGAIGSGGNAYYTSWAKSRSTITRNTNENTVTLKMTSLTVADTATYFCARGGINFGIWGPGTLVTVSS
VL: AAVLTQTPSPVSAAVGSTVTINCQSSQSVYSKNWLSWFQQKPGQPPKQLIYSASTLDSGVPSRFSGSGSGTQFTLTISGVQCDDAATYYCQGTYGDASAFGGGTEVVVK
EC50 [5]: 49 nM
EC50 [6]: 3.64 nM
EC50 [7]: 3.71 nM

Source: article PMC11849073, “Specific recognition mechanism of an antibody to sulfated tyrosine and its potential use in biological research” (The Journal of Biological Chemistry, 2025)
